From US9649350B2, “Use for dendropanax morbifera extract for adjusting 15- hydroxyprostaglandin dehydrogenase and PGE 2 activity” (INDUSTRY-ACADEMIC COOPERATION FOUNDATION, CHOSUN UNIVERSITY, priority 2012, dated 2017)

How the values were obtained:
[1] = tested on: HaCaT cells; assay: In vitro scratch analysis in HaCaT cells; format: cell-based, human; settings: scratch model with 15-PGDH and its coenzyme NAD+
Procedure: For in vitro scratch analysis (Hintermann et al., 2001; Koivisto et al., 2006), HaCaT cells were seeded 3×10^5 cells per well on 6-well plates and cultured until 80% confluence was reached. Then, culture medium was replaced with serum-free medium containing mitomycin (10 μg/mL) and cells were cultured for 2 hours to block the proliferation of wound and washed with PBS. Scratch was made by sterilized 200 μL pipette tip and washed again.
The process of wound healing was observed by taking photographs of identical spots before and after the culture. Experiment was repeated for 3 times and representative photos were illustrated Immediately after the formation of scratch, photos of scratch were taken by microscope (×100) and 48 hours after the culture, photos were taken once more. By measuring the distance between scratch, the % recovery rate by drug was calculated in comparison with the negative control group.
In the meantime, in order to investigate whether PGE2 is directly involved in scratch healing, 15-PGDH and its coenzyme NAD^+ were treated in identical model system.

[2] = tested on: ICR mice; assay: In vivo wound healing, 5 mm circular wound, H&E tissue staining; settings: TGF-β1 20 ng/day
Procedure: To confirm the wound healing effect of Dendropanax morbifera extract of the present invention in vivo, following experiments were conducted. First, 7 week old male ICR mice (average weight: 25 g) were purchased from Damul Science Co. (Daejuen, Korea) and after a week of adjustment period, they were anesthetized by administering anesthetic (zoletil, 50 μL) into the abdominal cavity and then circular wound with diameter of 5 mm was made under anesthesia. From a day later, being divided into 4 groups, wound of each group was treated with drugs daily basis as below while 10 μL of drugs were applied to wound of each group and the degree of healing was observed by tissue staining Animal experiments conducted in the examples were approved by Chonnam National University animal experiment ethics committee (IRB) (CNU IACUC-YB-R-2012-12) and tissue staining was done by fragmenting the wounded tissue of mice on which the above experiment of 4 groups was conducted and stained with hemtoxylin-Eosin (H & E). The distance of recovered wound was measured by visualizing stained tissues with microscope (40×). Moreover, the wound healing efficiency was calculated based on the distance measured.

[3] = tested on: ICR mice; assay: In vivo gastric ulcer prevention, HCl/ethanol-induced gastric lesion; settings: oral, 24 h and 1 h before HCl/ethanol; DMHE 0.87 mg/kg, sucralfate 100 mg/kg
Excerpt: To investigate the prevention effect of Dendropanax morbifera for gastric ulcer, […] male ICR mice with weight of 20±2 g were used. The mice above were purchased from Damul Science Co. (Daejuen, Korea). Animal experiments conducted in the examples were approved by Chonnam National University animal experiment ethics committee (IRB) (CNU IACUC-YB-R-2012-11).
The above-described animals were divided into 3 groups (for each group, n=7) that comprise normal group (vehicle 0.5% CMC (carboxyl methylcellulose)), positive control group (sucralfate, 100 mg/kg in 0.5% CMC) and experimental group (Dendropanax morbifera leaf hexane extract in 0.5% CMC).
Balanced diet was provided to the animals and they were allowed to drink water freely. One week later, animals were forced to fast for all day long. 24 hours before inducing the […] bleeding, Dendropanax morbifera hexane extract (DMHE, dissolved in 0.5% CMC) was administered with oral dose of 0.87 mg/kg and administered once more 1 hour before HCl/ethanol was applied. It was conducted for the negative (0.5% CMC, 1 mL/kg) and positive control group (sucralfate, 100 mg/kg in 0.5% CMC) simultaneously. By administering HCl/ethanol mixture containing 150 mM HCl in 60% ethanol into stomach, gastric lesion of hemorrhage was induced. […]

Row | Substance | wound healing effect on treatment with 15-PGDH and NAD+ [1] | distance between wound ([2]; 4th day after drug treatment) [mm] | % of healing compared to initial wound diameter (5 mm) ([2]; 4th day) [%] | gastric lesion (bleeding, edema) [3]
1 | TGF-β1: transforming growth factor β1, a cytokine; positive control for wound healing | completely vanished | 1.72 | 65.6 | –
2 | sucralfate | – | – | – | have not shown any type of lesion
